Reference: PubChem BioAssay (NCI)
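These data come from cells grown in 96-well plates and exposed to compound for 48 hours at five concentrations. The concentration for 50% growth inhibition is given as GI50. TGI marks complete inhibition of growth.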

Tests used:
Assay in all cases: DTP human tumour cell line panel, 48 h
MOLT-4 leukemia = tested on: MOLT-4 leukemia
T-47D breast = tested on: T-47D breast
HL-60(TB) leukemia = tested on: HL-60(TB) leukemia
PC-3 prostate = tested on: PC-3 prostate
KM12 colon = tested on: KM12 colon
SN12C renal = tested on: SN12C renal
SK-MEL-28 melanoma = tested on: SK-MEL-28 melanoma
DU-145 prostate = tested on: DU-145 prostate
RPMI-8226 leukemia = tested on: RPMI-8226 leukemia
U251 CNS = tested on: U251 CNS
A549 NSCLC = tested on: A549 NSCLC
NCI-H23 lung = tested on: NCI-H23 lung
UACC-257 melanoma = tested on: UACC-257 melanoma
786-0 renal = tested on: 786-0 renal
SF-539 CNS = tested on: SF-539 CNS
HCT-15 colon = tested on: HCT-15 colon
HCT-116 colon = tested on: HCT-116 colon
LOX IMVI melanoma = tested on: LOX IMVI melanoma
SW-620 colon = tested on: SW-620 colon
EKVX NSCLC = tested on: EKVX NSCLC
TK-10 renal = tested on: TK-10 renal
SR leukemia = tested on: SR leukemia
UACC-62 melanoma = tested on: UACC-62 melanoma
HCC-2998 colon = tested on: HCC-2998 colon
SNB-19 CNS = tested on: SNB-19 CNS
OVCAR-4 ovarian = tested on: OVCAR-4 ovarian
SK-MEL-2 melanoma = tested on: SK-MEL-2 melanoma
MCF7 breast = tested on: MCF7 breast
SF-295 CNS = tested on: SF-295 CNS
SNB-75 CNS = tested on: SNB-75 CNS
CCRF-CEM leukemia = tested on: CCRF-CEM leukemia
NCI/ADR-RES ovarian = tested on: NCI/ADR-RES ovarian
K-562 leukemia = tested on: K-562 leukemia
SF-268 CNS = tested on: SF-268 CNS
MALME-3M melanoma = tested on: MALME-3M melanoma
HS 578T breast = tested on: HS 578T breast
A498 renal = tested on: A498 renal
OVCAR-8 ovarian = tested on: OVCAR-8 ovarian
MDA-MB-231 breast = tested on: MDA-MB-231 breast
CAKI-1 renal = tested on: CAKI-1 renal
HOP-62 NSCLC = tested on: HOP-62 NSCLC
NCI-H226 lung = tested on: NCI-H226 lung
IGROV1 ovarian = tested on: IGROV1 ovarian
RXF 393 renal = tested on: RXF 393 renal
BT-549 breast = tested on: BT-549 breast
COLO 205 colon = tested on: COLO 205 colon
NCI-H522 lung = tested on: NCI-H522 lung
SK-MEL-5 melanoma = tested on: SK-MEL-5 melanoma
OVCAR-5 ovarian = tested on: OVCAR-5 ovarian
M14 melanoma = tested on: M14 melanoma
MDA-MB-435 = tested on: MDA-MB-435
NCI-H460 lung = tested on: NCI-H460 lung
HT29 colon = tested on: HT29 colon
OVCAR-3 ovarian = tested on: OVCAR-3 ovarian
SK-OV-3 ovarian = tested on: SK-OV-3 ovarian
ACHN renal = tested on: ACHN renal
HOP-92 NSCLC = tested on: HOP-92 NSCLC
UO-31 renal = tested on: UO-31 renal

O=C1/C(=C/c2ccc(O)cc2)CSc2ccc(Cl)cc21 gave a GI50 (MOLT-4 leukemia) of 4.09 µM, a TGI (MOLT-4 leukemia) of over 100 µM and a GI50 (T-47D breast) of 8.86 µM. It also gave a TGI (T-47D breast) of 22.7 µM, a GI50 (HL-60(TB) leukemia) of 2.27 µM and a TGI (HL-60(TB) leukemia) of over 100 µM. The GI50 (PC-3 prostate) was 13.1 µM, the TGI (PC-3 prostate) was 53.8 µM and the GI50 (KM12 colon) was 3.59 µM. The TGI (KM12 colon) was 15.7 µM, the GI50 (SN12C renal) was 14 µM and the TGI (SN12C renal) was 46.9 µM. For the same molecule, the GI50 (SK-MEL-28 melanoma) was 4.04 µM, the TGI (SK-MEL-28 melanoma) was 15.8 µM and the GI50 (DU-145 prostate) was 12.4 µM. For the same molecule, the TGI (DU-145 prostate) was 27.2 µM, the GI50 (RPMI-8226 leukemia) was 3.62 µM and the TGI (RPMI-8226 leukemia) was over 100 µM. It also gave a GI50 (U251 CNS) of 4.21 µM, a TGI (U251 CNS) of 15.8 µM and a GI50 (A549 NSCLC) of 32 µM. It also gave a TGI (A549 NSCLC) of over 100 µM, a GI50 (NCI-H23 lung) of 19.3 µM and a TGI (NCI-H23 lung) of 46 µM. It also gave a GI50 (UACC-257 melanoma) of 19.1 µM, a TGI (UACC-257 melanoma) of 38.9 µM and a GI50 (786-0 renal) of 17.2 µM. For the same molecule, the TGI (786-0 renal) was 49.8 µM, the GI50 (SF-539 CNS) was 16.8 µM and the TGI (SF-539 CNS) was 31.4 µM. For the same molecule, the GI50 (HCT-15 colon) was 8.31 µM, the TGI (HCT-15 colon) was 21.9 µM and the GI50 (HCT-116 colon) was 7.08 µM. For the same molecule, the TGI (HCT-116 colon) was over 100 µM, the GI50 (LOX IMVI melanoma) was 2.63 µM and the TGI (LOX IMVI melanoma) was 8.75 µM. The GI50 (SW-620 colon) was 1.99 µM, the TGI (SW-620 colon) was 4.04 µM and the GI50 (EKVX NSCLC) was 16.4 µM. For the same molecule, the TGI (EKVX NSCLC) was 32.4 µM, the GI50 (TK-10 renal) was 15.6 µM and the TGI (TK-10 renal) was 34.2 µM. For the same molecule, the GI50 (SR leukemia) was 2.14 µM, the TGI (SR leukemia) was over 100 µM and the GI50 (UACC-62 melanoma) was 12.2 µM. It also gave a TGI (UACC-62 melanoma) of 26.2 µM, a GI50 (HCC-2998 colon) of 13.6 µM and a TGI (HCC-2998 colon) of 30.1 µM. The GI50 (SNB-19 CNS) was 14.1 µM, the TGI (SNB-19 CNS) was 27.4 µM and the GI50 (OVCAR-4 ovarian) was 21.7 µM. The TGI (OVCAR-4 ovarian) was over 100 µM, the GI50 (SK-MEL-2 melanoma) was 19.1 µM and the TGI (SK-MEL-2 melanoma) was 51.8 µM. For the same molecule, the GI50 (MCF7 breast) was 0.651 µM, the TGI (MCF7 breast) was 11 µM and the GI50 (SF-295 CNS) was 18.2 µM. The TGI (SF-295 CNS) was 40.1 µM, the GI50 (SNB-75 CNS) was 18.3 µM and the TGI (SNB-75 CNS) was 54.8 µM. For the same molecule, the GI50 (CCRF-CEM leukemia) was 0.58 µM, the TGI (CCRF-CEM leukemia) was over 100 µM and the GI50 (NCI/ADR-RES ovarian) was 18.7 µM. It also gave a TGI (NCI/ADR-RES ovarian) of over 100 µM, a GI50 (K-562 leukemia) of 2.36 µM and a TGI (K-562 leukemia) of over 100 µM. For the same molecule, the GI50 (SF-268 CNS) was 15.4 µM, the TGI (SF-268 CNS) was 41.3 µM and the GI50 (MALME-3M melanoma) was 16.6 µM. The TGI (MALME-3M melanoma) was 38 µM, the GI50 (HS 578T breast) was 2.9 µM and the TGI (HS 578T breast) was 7.36 µM. The GI50 (A498 renal) was 15 µM, the TGI (A498 renal) was 28.4 µM and the GI50 (OVCAR-8 ovarian) was 11.1 µM. For the same molecule, the TGI (OVCAR-8 ovarian) was over 100 µM, the GI50 (MDA-MB-231 breast) was 17.8 µM and the TGI (MDA-MB-231 breast) was 44.3 µM. The GI50 (CAKI-1 renal) was 21.2 µM, the TGI (CAKI-1 renal) was 52 µM and the GI50 (HOP-62 NSCLC) was 14.2 µM. It also gave a TGI (HOP-62 NSCLC) of 45 µM, a GI50 (NCI-H226 lung) of 22.1 µM and a TGI (NCI-H226 lung) of 51.2 µM. For the same molecule, the GI50 (IGROV1 ovarian) was 7.58 µM, the TGI (IGROV1 ovarian) was 51 µM and the GI50 (RXF 393 renal) was 17.9 µM. It also gave a TGI (RXF 393 renal) of 37.7 µM, a GI50 (BT-549 breast) of 15.7 µM and a TGI (BT-549 breast) of 38.3 µM. The GI50 (COLO 205 colon) was 15.6 µM, the TGI (COLO 205 colon) was 29 µM and the GI50 (NCI-H522 lung) was 3.25 µM. For the same molecule, the TGI (NCI-H522 lung) was 10.7 µM, the GI50 (SK-MEL-5 melanoma) was 12.3 µM and the TGI (SK-MEL-5 melanoma) was 24.7 µM. It also gave a GI50 (OVCAR-5 ovarian) of 19.8 µM, a TGI (OVCAR-5 ovarian) of 40.4 µM and a GI50 (M14 melanoma) of 10 µM. For the same molecule, the TGI (M14 melanoma) was 62.2 µM, the GI50 (MDA-MB-435) was 4.54 µM and the TGI (MDA-MB-435) was 25.3 µM. The GI50 (NCI-H460 lung) was 17.7 µM, the TGI (NCI-H460 lung) was 39.2 µM and the GI50 (HT29 colon) was 16.5 µM. It also gave a TGI (HT29 colon) of 89.7 µM, a GI50 (OVCAR-3 ovarian) of 5.69 µM and a TGI (OVCAR-3 ovarian) of 19.4 µM. For the same molecule, the GI50 (SK-OV-3 ovarian) was 23 µM, the TGI (SK-OV-3 ovarian) was 44.6 µM and the GI50 (ACHN renal) was 11.9 µM. The TGI (ACHN renal) was 24.3 µM, the GI50 (HOP-92 NSCLC) was 21.7 µM and the TGI (HOP-92 NSCLC) was over 100 µM. For the same molecule, the GI50 (UO-31 renal) was 12.4 µM and the TGI (UO-31 renal) was 29.1 µM.
